Measured values reported in US20260027258A1, “Antimicrobial Compositions” (Matoke Holdings Limited, priority 2022, published 2026).
Values after ≈ are worked out from the molar mass of the structure shown. Values belong to the compound of their own block, whether it stands above or below them.

Experiments:
C. parapsilosis = experiment: Yeast susceptibility testing (EUCAST E.DEF 7.3.2 broth microdilution), C. parapsilosis; assay type: cell-based; conditions: Lodderomyces parapsilosis, C. parapsilosis isolates (n=4), 24 hours read, MIC = growth inhibited by ≥50%
Description: (§1) AST was used to determine a Minimum Inhibitory Concentration (MIC) value for each antifungal agent on each strain of Candida. Three comparator drugs were also tested. This allowed the effectiveness of RO-101 gel to be compared to common antifungal drugs often used to treat VVC. Antifungal agents and their concentrations were as follows: RO-101 gel (1×, 2×, 10×, 20×: 1×=0.005%, 2×=0.01%, 10×=0.05% and 20×=0.1% Gox) (1 to 500 mg/L), SurgihoneyRO (1 to 500 mg/L), RO-101 gel 0% negative control (0% Gox) (1 to 500 mg/L), Fluconazole (0.125 to 64 mg/L), Itraconazole (0.015 to 8 mg/L) and Amphotericin (0.015 to 8 mg/L). The EUCAST E.DEF 7.3.2 (EUCAST, 2022a) method for yeast susceptibility testing was followed where possible.
(§2) Stock solutions of drugs were prepared with RPMI 1640 medium with 2% glucose. This was prepared by dissolving 20.8 g of RPMI 1640 powder (Sigma, Cat. No. R-6504), 69.1 g of morpholinopropanesulfonic acid (MOPS) (Melford, Cat. No. B2003) and 36 g of glucose (Sigma, Cat. No. G7528) in 800 ml of pharmacy water (Appleton Woods). 10M sodium hydroxide (Sigma, S8045) was added to adjust the pH to 7, and then the RPMI was filter sterilised. De Man, Rogosa & Sharpe (MRS) broth was used to grow the Lactobacillus isolates. MRS broth was prepared by dissolving 51 g of MRS powder (Sigma, 69966) in 1 litre of pharmacy water. 1 ml of Tween 80 (Sigma, P8074) was then added. The mixture was then sterilized by autoclaving at 121° C. for 15 minutes.
(§3) All yeast isolates selected were grown from high vaginal swab samples and were of the Candida genus. Species chosen included C. albicans (n=5), C. glabrata (n=8), C. krusei (n=4), C. tropicalis (n=3) and C. parapsilosis (n=4). These isolates were identified to a species level by testing for the presence of a germ tube, biochemical testing, what temperature the isolate grew in, the colour when streaked on chrome agar, and in some cases the isolates DNA was sequenced.
(§4) The isolates were streaked for single colonies on a SAB plate, using a sterile metal loop. They were then incubated at 35° C. for 48 hours prior to susceptibility testing. […]

C. krusei = experiment: Yeast susceptibility testing (EUCAST E.DEF 7.3.2 broth microdilution), C. krusei; assay type: cell-based; conditions: Pichia kudriavzevii, C. krusei isolates (n=4), 24 hours read, MIC = growth inhibited by ≥50%
Description: as §1, §2, §3, §4

C. tropicalis = experiment: Yeast susceptibility testing (EUCAST E.DEF 7.3.2 broth microdilution), C. tropicalis; assay type: cell-based; conditions: Candida tropicalis, C. tropicalis isolates (n=3), 24 hours read, MIC = growth inhibited by ≥50%
Description: as §1
as §2, with “The mixture was then sterilized by autoclaving at 121° C. for 15 minutes.” left out

C. glabrata = experiment: Yeast susceptibility testing (EUCAST E.DEF 7.3.2 broth microdilution), C. glabrata; assay type: cell-based; conditions: Nakaseomyces glabratus, C. glabrata isolates (n=8), 24 hours read, MIC = growth inhibited by ≥50% (Amphotericin ≥90%)
Description: as §1, §2, §3, §4

C. albicans = experiment: Yeast susceptibility testing (EUCAST E.DEF 7.3.2 broth microdilution), C. albicans; assay type: cell-based; conditions: Candida albicans; C. albicans isolates (n=5); 24 hours read; MIC = growth inhibited by ≥50% (Amphotericin ≥90%)
Description: as §1
as §2, with “The mixture was then sterilized by autoclaving at 121° C. for 15 minutes.” left out

[1] = tested on: strains of Candida causing VVC; experiment: Yeast susceptibility testing, all Candida species tested (overall comparisons); assay type: cell-based; conditions: versus all of the gel concentrations
Description: as §1
as §2, with “The mixture was then sterilized by autoclaving at 121° C. for 15 minutes.” left out

[2] = at 20° C. and 1 atm; cited from earlier work

MIC50 (C. parapsilosis): 0.015 µg/mL (≈ 0.0213 µM)
MIC90 (C. parapsilosis): 0.125 µg/mL (≈ 0.177 µM)
MIC (C. parapsilosis; read-out: MIC geometric mean): 0.025 µg/mL (≈ 0.0354 µM)
MIC50 (C. krusei): 0.125 µg/mL (≈ 0.177 µM)
MIC90 (C. krusei): 0.25 µg/mL (≈ 0.354 µM)
MIC (C. krusei; read-out: MIC geometric mean): 0.177 µg/mL (≈ 0.251 µM)
MIC90 (C. tropicalis): 0.0625 µg/mL (≈ 0.0886 µM)
MIC (C. tropicalis; read-out: MIC geometric mean): 0.031 µg/mL (≈ 0.0439 µM)
SMILES: CCC(C)n1ncn(-c2ccc(N3CCN(c4ccc(OCC5COC(Cn6cncn6)(c6ccc(Cl)cc6Cl)O5)cc4)CC3)cc2)c1=O (stereo not drawn) [Itraconazole]

MIC50 (C. glabrata): 0.0625 µg/mL (≈ 0.0676 µM)
MIC90 (C. glabrata): 0.125 µg/mL (≈ 0.135 µM)
MIC (C. glabrata; read-out: MIC geometric mean): 0.081 µg/mL (≈ 0.0877 µM)
MIC50 (C. albicans): 0.0625 µg/mL (≈ 0.0676 µM)
MIC90 (C. albicans): 0.0625 µg/mL (≈ 0.0676 µM)
SMILES: C[C@@H]1[C@H](O)[C@@H](C)/C=C/C=C/C=C/C=C/C=C/C=C/C=C/[C@H](O[C@@H]2O[C@H](C)[C@@H](O)[C@H](N)[C@@H]2O)C[C@@H]2O[C@](O)(C[C@@H](O)C[C@@H](O)[C@H](O)CC[C@@H](O)C[C@@H](O)CC(=O)O[C@H]1C)C[C@H](O)[C@H]2C(=O)O [Amphotericin]
MIC50, MIC90 and geometric means in comparison with RO-101 Gel [1]: lower MIC50, MIC90 and geometric means than all of the gel concentrations

SMILES: O=C(CO)[C@@H](O)[C@H](O)[C@H](O)CO [Fructose]
solubility [2]: about 375 g/100 g water
